Positions of bridges follow the written chain, without caps; N, C: chain ends. Non-standard residues stand in square brackets, D forms with d. Residues, ends and D or L forms follow the SMILES beside them. 1Nal = N[C@@H](Cc1cccc2ccccc12)C(=O)O
Experiments:
Test in all cases: cell-based
hNav1.7 = hNav1.7 (Homo sapiens, UniProt Q15858); settings: Nav1.7 Use IC50
hNav1.5 = hNav1.5 (Homo sapiens, UniProt Q14524)
hNav1.3 = hNav1.3 (Homo sapiens, UniProt Q9NY46); assay type: cell-based; settings: Nav1.3 Use IC50

Chain of hNav1.7 (Q15858 whole entry, looked up): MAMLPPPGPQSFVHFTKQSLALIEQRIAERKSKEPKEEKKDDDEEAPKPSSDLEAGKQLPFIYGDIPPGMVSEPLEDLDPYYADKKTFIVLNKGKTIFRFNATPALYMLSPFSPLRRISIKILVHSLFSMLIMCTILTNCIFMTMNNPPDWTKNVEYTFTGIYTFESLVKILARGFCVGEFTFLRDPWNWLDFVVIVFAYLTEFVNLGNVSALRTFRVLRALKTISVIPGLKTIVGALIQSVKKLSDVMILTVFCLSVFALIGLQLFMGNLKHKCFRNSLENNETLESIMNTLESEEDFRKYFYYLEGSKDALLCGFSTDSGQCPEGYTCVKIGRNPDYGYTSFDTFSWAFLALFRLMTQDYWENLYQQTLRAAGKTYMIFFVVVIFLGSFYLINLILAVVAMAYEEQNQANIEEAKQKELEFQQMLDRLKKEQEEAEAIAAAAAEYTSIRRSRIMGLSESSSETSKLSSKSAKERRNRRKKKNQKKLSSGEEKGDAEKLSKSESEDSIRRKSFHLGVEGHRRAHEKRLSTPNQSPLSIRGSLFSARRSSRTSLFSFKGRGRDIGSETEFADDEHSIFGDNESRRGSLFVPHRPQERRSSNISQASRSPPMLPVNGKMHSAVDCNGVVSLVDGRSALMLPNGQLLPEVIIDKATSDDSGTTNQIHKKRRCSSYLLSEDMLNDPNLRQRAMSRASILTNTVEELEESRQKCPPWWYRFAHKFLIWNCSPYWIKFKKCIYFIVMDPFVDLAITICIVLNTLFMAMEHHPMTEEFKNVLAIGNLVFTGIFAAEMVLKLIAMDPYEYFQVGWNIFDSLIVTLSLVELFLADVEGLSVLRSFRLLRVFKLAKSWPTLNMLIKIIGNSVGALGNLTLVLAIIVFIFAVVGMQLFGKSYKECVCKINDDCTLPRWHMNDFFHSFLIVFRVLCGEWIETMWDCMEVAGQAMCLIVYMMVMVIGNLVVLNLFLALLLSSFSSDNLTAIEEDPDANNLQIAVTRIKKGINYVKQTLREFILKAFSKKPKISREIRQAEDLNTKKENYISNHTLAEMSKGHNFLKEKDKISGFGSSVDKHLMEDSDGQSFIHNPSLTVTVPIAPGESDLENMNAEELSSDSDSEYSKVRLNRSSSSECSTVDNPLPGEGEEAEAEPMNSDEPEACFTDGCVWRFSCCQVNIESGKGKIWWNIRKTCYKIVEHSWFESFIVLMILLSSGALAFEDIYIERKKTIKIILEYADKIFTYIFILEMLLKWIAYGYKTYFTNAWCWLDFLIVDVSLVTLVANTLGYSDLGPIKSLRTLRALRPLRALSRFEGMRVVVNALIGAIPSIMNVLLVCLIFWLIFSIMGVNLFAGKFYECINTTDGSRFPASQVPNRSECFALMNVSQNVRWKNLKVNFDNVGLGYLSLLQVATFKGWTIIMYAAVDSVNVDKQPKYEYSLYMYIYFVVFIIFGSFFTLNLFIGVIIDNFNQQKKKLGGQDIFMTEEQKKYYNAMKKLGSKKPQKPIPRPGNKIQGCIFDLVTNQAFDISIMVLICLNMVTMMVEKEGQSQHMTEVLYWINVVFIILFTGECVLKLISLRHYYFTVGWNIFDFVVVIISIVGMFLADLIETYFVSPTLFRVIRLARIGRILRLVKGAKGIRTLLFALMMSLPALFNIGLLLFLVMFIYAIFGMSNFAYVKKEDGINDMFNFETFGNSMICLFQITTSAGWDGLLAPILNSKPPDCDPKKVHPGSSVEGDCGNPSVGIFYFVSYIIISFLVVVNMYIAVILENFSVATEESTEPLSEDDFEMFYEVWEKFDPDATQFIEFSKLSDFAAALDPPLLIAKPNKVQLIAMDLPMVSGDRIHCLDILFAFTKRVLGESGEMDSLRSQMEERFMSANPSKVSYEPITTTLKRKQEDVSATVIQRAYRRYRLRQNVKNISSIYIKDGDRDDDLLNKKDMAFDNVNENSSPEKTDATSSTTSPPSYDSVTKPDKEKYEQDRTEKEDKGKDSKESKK
Chain of hNav1.5 (Q14524 whole entry, looked up): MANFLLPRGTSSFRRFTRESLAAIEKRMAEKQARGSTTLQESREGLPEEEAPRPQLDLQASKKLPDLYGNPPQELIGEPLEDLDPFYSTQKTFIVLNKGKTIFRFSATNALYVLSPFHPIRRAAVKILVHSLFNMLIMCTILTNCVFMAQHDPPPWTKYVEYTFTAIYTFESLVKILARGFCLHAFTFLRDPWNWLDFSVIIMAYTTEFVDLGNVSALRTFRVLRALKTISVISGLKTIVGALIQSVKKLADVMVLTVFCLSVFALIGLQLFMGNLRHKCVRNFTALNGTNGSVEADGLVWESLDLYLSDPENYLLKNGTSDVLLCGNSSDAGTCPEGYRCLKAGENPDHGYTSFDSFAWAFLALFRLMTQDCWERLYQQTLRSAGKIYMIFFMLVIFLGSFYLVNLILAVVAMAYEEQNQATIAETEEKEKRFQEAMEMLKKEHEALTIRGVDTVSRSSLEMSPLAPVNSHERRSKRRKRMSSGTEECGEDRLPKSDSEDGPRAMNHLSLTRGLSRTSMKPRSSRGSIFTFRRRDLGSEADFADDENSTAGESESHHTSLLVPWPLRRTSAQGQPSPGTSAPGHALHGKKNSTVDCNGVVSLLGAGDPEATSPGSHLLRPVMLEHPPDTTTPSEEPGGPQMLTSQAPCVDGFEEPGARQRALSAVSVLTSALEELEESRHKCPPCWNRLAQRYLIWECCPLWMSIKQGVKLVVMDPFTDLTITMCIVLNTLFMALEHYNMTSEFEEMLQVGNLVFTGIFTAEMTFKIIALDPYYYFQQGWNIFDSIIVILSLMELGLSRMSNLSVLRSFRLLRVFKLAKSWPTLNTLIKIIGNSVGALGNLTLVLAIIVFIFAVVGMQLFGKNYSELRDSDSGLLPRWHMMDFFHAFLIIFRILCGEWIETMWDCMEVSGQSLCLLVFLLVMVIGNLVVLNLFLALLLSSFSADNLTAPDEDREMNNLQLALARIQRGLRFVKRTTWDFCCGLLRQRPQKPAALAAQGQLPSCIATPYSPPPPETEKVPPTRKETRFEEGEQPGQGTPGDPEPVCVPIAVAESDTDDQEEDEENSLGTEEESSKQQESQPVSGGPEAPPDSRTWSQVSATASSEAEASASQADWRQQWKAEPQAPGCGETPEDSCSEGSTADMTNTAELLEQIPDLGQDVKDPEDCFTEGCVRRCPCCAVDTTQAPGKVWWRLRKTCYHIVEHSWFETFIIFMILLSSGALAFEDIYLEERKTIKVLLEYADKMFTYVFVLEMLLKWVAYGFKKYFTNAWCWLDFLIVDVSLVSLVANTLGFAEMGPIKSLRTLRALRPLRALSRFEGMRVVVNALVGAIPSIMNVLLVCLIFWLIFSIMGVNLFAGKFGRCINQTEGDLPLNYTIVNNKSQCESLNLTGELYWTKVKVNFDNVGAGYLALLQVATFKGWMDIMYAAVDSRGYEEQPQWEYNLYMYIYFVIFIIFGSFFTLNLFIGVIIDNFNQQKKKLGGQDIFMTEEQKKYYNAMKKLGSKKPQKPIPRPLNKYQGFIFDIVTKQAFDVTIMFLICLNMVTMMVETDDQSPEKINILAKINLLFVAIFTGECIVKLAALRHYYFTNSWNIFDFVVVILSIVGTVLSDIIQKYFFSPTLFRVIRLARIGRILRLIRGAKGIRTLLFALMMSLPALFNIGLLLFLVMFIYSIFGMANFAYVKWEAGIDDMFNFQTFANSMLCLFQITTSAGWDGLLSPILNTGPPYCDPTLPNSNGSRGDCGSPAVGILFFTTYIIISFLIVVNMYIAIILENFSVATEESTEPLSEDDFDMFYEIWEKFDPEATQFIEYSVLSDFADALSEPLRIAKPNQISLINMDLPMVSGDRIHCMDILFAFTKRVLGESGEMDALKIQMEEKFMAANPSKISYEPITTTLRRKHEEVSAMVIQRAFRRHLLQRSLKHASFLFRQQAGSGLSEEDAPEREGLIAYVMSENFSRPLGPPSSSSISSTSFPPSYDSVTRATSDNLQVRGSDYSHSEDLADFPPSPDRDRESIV

| SMILES | IC50 (hNav1.7) | IC50 (hNav1.5) | IC50 (hNav1.3) |
| --- | --- | --- | --- |
| CC[C@H](C)[C@@H]1NC(=O)[C@@H]2CSSC[C@@H]3NC(=O)[C@H](C(C)C)NC(=O)[C@H](CC(C)C)NC(=O)[C@H](CC(N)=O)NC(=O)[C@@H]4CCCN4C(=O)[C@H](CCCNC(=N)N)NC(=O)[C@H](CSSC[C@H](NC(=O)[C@@H](N)CC(=O)O)C(=O)N[C@@H](CC(C)C)C(=O)NCC(=O)N[C@@H](Cc4ccccc4)C(=O)N[C@@H](CCSC)C(=O)N[C@@H](CCCNC(=N)N)C(=O)N[C@@H](CCCCN)C(=O)N2)NC(=O)[C@H](CSSC[C@@H](C(=O)N[C@@H](CCCCN)C(=O)N[C@@H](Cc2ccc(O)cc2)C(=O)N[C@H](C(=O)N[C@@H](Cc2cccc4ccccc24)C(N)=O)C(C)C)NC(=O)[C@H](Cc2c[nH]c4ccccc24)NC(=O)[C@H](CCCCN)NC(=O)[C@H](Cc2cnc[nH]2)NC(=O)[C@H]([C@@H](C)O)NC(=O)[C@H](CCCNC(=N)N)NC(=O)[C@H](CO)NC3=O)NC(=O)[C@H](CCCCN)NC(=O)[C@H](CC(=O)O)NC(=O)[C@H](CC(N)=O)NC(=O)[C@H](CC(=O)O)NC(=O)[C@@H]2CCCN2C1=O [[1-Nal34]GpTx-1(1-34)] (H-DCLGFMRKCIPDNDKCCRPNLVCSRTHKWCKYV[1Nal]-NH2; disulfide 2-17, 9-23, 16-30) | 0.004 µM | 1.86 µM | 0.007 µM |
| CC[C@H](C)[C@@H]1NC(=O)[C@@H]2CSSC[C@@H]3NC(=O)[C@H](C(C)C)NC(=O)[C@H](CC(C)C)NC(=O)[C@H](CC(N)=O)NC(=O)[C@@H]4CCCN4C(=O)[C@H](CCCNC(=N)N)NC(=O)[C@H](CSSC[C@H](NC(=O)[C@@H](N)CC(=O)O)C(=O)N[C@@H](CC(C)C)C(=O)NCC(=O)N[C@@H](Cc4ccccc4)C(=O)N[C@@H](CCSC)C(=O)N[C@@H](CCCNC(=N)N)C(=O)N[C@@H](CCCCN)C(=O)N2)NC(=O)[C@H](CSSC[C@@H](C(=O)N[C@@H](CCCCN)C(=O)N[C@@H](Cc2ccc(O)cc2)C(=O)N[C@H](C(=O)N[C@@H](Cc2ccccc2)C(=O)N[C@@H](Cc2c[nH]c4ccccc24)C(N)=O)C(C)C)NC(=O)[C@H](Cc2c[nH]c4ccccc24)NC(=O)[C@H](CCCCN)NC(=O)[C@H](Cc2c[nH]cn2)NC(=O)[C@H]([C@@H](C)O)NC(=O)[C@H](CCCNC(=N)N)NC(=O)[C@H](CO)NC3=O)NC(=O)[C@H](CCCCN)NC(=O)[C@H](CC(=O)O)NC(=O)[C@H](CC(N)=O)NC(=O)[C@H](CC(=O)O)NC(=O)[C@@H]2CCCN2C1=O [GpTx-1(1-34)-Trp] | 0.009 µM | 2.66 µM | 0.015 µM |
| CC[C@H](C)[C@@H]1NC(=O)[C@@H]2CSSC[C@@H]3NC(=O)[C@H](C(C)C)NC(=O)[C@H](CC(C)C)NC(=O)[C@H](CC(N)=O)NC(=O)[C@@H]4CCCN4C(=O)[C@H](CCCNC(=N)N)NC(=O)[C@H](CSSC[C@H](NC(=O)[C@@H](N)CC(=O)O)C(=O)N[C@@H](CC(C)C)C(=O)NCC(=O)N[C@@H](C)C(=O)N[C@@H](CCSC)C(=O)N[C@@H](CCCNC(=N)N)C(=O)N[C@@H](CCCCN)C(=O)N2)NC(=O)[C@H](CSSC[C@@H](C(=O)N[C@@H](CCCCN)C(=O)N[C@@H](Cc2ccc(O)cc2)C(=O)N[C@H](C(=O)N[C@@H](Cc2ccccc2)C(N)=O)C(C)C)NC(=O)[C@H](Cc2c[nH]c4ccccc24)NC(=O)[C@H](CCCNC(=N)N)NC(=O)[C@H](Cc2c[nH]cn2)NC(=O)[C@H]([C@@H](C)O)NC(=O)[C@H](CCCNC(=N)N)NC(=O)[C@H](CO)NC3=O)NC(=O)[C@H](CCCCN)NC(=O)[C@H](CC(=O)O)NC(=O)[C@H](CC(N)=O)NC(=O)[C@H](CC(=O)O)NC(=O)[C@@H]2CCCN2C1=O [[Ala5;Arg28]GpTx-1(1-34)] (H-DCLGAMRKCIPDNDKCCRPNLVCSRTHRWCKYVF-NH2; disulfide 2-17, 9-23, 16-30) | 0.077 µM | > 10 µM | 0.44 µM |
| CC[C@H](C)[C@@H]1NC(=O)[C@@H]2CSSC[C@@H]3NC(=O)[C@H](C(C)C)NC(=O)[C@H](CC(C)C)NC(=O)[C@H](CC(N)=O)NC(=O)[C@@H]4CCCN4C(=O)[C@H](Cc4c[nH]c5ccccc45)NC(=O)[C@H](CSSC[C@H](NC(=O)[C@@H](N)CC(=O)O)C(=O)N[C@@H](CC(C)C)C(=O)NCC(=O)N[C@@H](Cc4ccccc4)C(=O)N[C@@H](CCSC)C(=O)N[C@@H](CCCNC(=N)N)C(=O)N[C@@H](CCCCN)C(=O)N2)NC(=O)[C@H](CSSC[C@@H](C(=O)N[C@@H](CCCCN)C(=O)N[C@@H](Cc2ccc(O)cc2)C(=O)N[C@H](C(=O)N[C@@H](Cc2ccccc2)C(N)=O)C(C)C)NC(=O)[C@H](Cc2c[nH]c4ccccc24)NC(=O)[C@H](CCCCN)NC(=O)[C@H](Cc2c[nH]cn2)NC(=O)[C@H]([C@@H](C)O)NC(=O)[C@H](CCCNC(=N)N)NC(=O)[C@H](CO)NC3=O)NC(=O)[C@H](CCCCN)NC(=O)[C@H](CC(=O)O)NC(=O)[C@H](CC(N)=O)NC(=O)[C@H](CC(=O)O)NC(=O)[C@@H]2CCCN2C1=O [[Trp18]GpTx-1(1-34)] (H-DCLGFMRKCIPDNDKCCWPNLVCSRTHKWCKYVF-NH2; disulfide 2-17, 9-23, 16-30) | 0.024 µM | > 10 µM | 0.042 µM |
| CC[C@H](C)[C@@H]1NC(=O)[C@@H]2CSSC[C@@H]3NC(=O)[C@H](C(C)C)NC(=O)[C@H](CC(C)C)NC(=O)[C@H](CC(N)=O)NC(=O)[C@@H]4CCCN4C(=O)[C@H](CCCNC(=N)N)NC(=O)[C@H](CSSC[C@H](NC(=O)[C@@H](N)CC(=O)O)C(=O)N[C@@H](CC(C)C)C(=O)NCC(=O)N[C@@H](C)C(=O)N[C@@H](CCSC)C(=O)N[C@@H](CCCNC(=N)N)C(=O)N[C@@H](CCCCN)C(=O)N2)NC(=O)[C@H](CSSC[C@@H](C(=O)N[C@@H](CCCCN)C(=O)N[C@@H](Cc2c[nH]c4ccccc24)C(=O)N[C@H](C(=O)N[C@@H](Cc2ccccc2)C(N)=O)C(C)C)NC(=O)[C@H](Cc2c[nH]c4ccccc24)NC(=O)[C@H](CCCCN)NC(=O)[C@H](Cc2c[nH]cn2)NC(=O)[C@H]([C@@H](C)O)NC(=O)[C@H](CCCNC(=N)N)NC(=O)[C@H](CO)NC3=O)NC(=O)[C@H](CCCCN)NC(=O)[C@H](CC(=O)O)NC(=O)[C@H](CC(N)=O)NC(=O)[C@H](CC(=O)O)NC(=O)[C@@H]2CCCN2C1=O [[Ala5;Trp32]GpTx-1(1-34)] (H-DCLGAMRKCIPDNDKCCRPNLVCSRTHKWCKWVF-NH2; disulfide 2-17, 9-23, 16-30) | 0.103 µM | > 10 µM | 2.98 µM |
| CC[C@H](C)[C@H](NC(=O)[C@H](Cc1ccc(O)cc1)NC(=O)[C@H](CCCCN)NC(=O)[C@@H]1CSSC[C@@H]2NC(=O)[C@H](CCCCN)NC(=O)[C@H](CC(=O)O)NC(=O)[C@H](CC(N)=O)NC(=O)[C@H](CC(=O)O)NC(=O)[C@@H]3CCCN3C(=O)[C@H]([C@@H](C)CC)NC(=O)[C@@H]3CSSC[C@H](NC(=O)[C@H](C(C)C)NC(=O)[C@H](CC(C)C)NC(=O)[C@H](CC(N)=O)NC(=O)[C@@H]4CCCN4C(=O)[C@H](CCCNC(=N)N)NC(=O)[C@H](CSSC[C@H](NC(=O)[C@@H](N)CC(=O)O)C(=O)N[C@@H](CC(C)C)C(=O)NCC(=O)N[C@@H](Cc4ccccc4)C(=O)N[C@@H](CCSC)C(=O)N[C@@H](CCCNC(=N)N)C(=O)N[C@@H](CCCCN)C(=O)N3)NC2=O)C(=O)N[C@@H](CO)C(=O)N[C@@H](CCCNC(=N)N)C(=O)N[C@@H]([C@@H](C)O)C(=O)N[C@@H](Cc2c[nH]cn2)C(=O)N[C@@H](CCCCN)C(=O)N[C@@H](Cc2c[nH]c3ccccc23)C(=O)N1)C(=O)N[C@@H](Cc1ccccc1)C(N)=O [[Ile33]GpTx-1(1-34)] (H-DCLGFMRKCIPDNDKCCRPNLVCSRTHKWCKYIF-NH2; disulfide 2-17, 9-23, 16-30) | 0.037 µM | > 10 µM | 0.102 µM |
